Values quoted from earlier work, collected in patent publication US20260272955A1, “Controlled Release Formulations of Highly Lipophilic Physiologically Active Substances” (ADD Advanced Drug Delivery Technologies Ltd., priority 2019, published 2026).

Conditions: decimal logarithm of the n-octanol/water partition coefficient; values typically refer to room temperature (25° C.)

C=C(C)[C@@H]1CCC(C)=C[C@H]1c1c(O)cc(CCCCC)cc1O [Canapure PH, 2-[1R-3-methyl-6R-(1-methylethenyl)-2-cyclohexen-1-yl]-5-pentyl-1,3-benzenediol]
log P: about 6.1
